In paper PMC5443783, “Prostaglandin E2 glyceryl ester is an endogenous agonist of the nucleotide receptor P2Y6” (Scientific Reports, 2017):
Numbered stars: 1 amine (or outer) side, 2 acyl side, 3 side chain; on linkers, the order of the positions; unused ones are H or OH. Bridge positions count the residues as written; N and C are the ends. Square brackets hold non-standard residues; d marks the D form. Peptide text beside a SMILES is read from it. * marks the point of attachment. Leu(3R-OH,Nα-propionyl) = CCC(=O)N[C@H](C(=O)*)[C@H](O)C(C)C; X1 = CC(C)[C@@H](O[*:3])[C@H](N[*:1])C(=O)[*:2]; NMeT = CN[C@H](C(=O)O)[C@@H](C)O; dPhLac = O=C(O)[C@H](O)Cc1ccccc1; NMeA = CN[C@@H](C)C(=O)O; NMeDha = C=C(NC)C(=O)O

What was measured:
[1] = test system: RAW264.7 cells; settings: RAW264.7 cells; cited from earlier work
[2] = target: T1, P2Y6 (Homo sapiens, UniProt Q15077); experiment: ERK1/2 phosphorylation (AlphaScreen SureFire) in P2RY6-transfected HEK293 cells; type: cell-based; parameters: expressed in transfected cells; host or cells: HEK293; settings: HEK293 cells stably transfected with P2RY6, Fig. 3e
Description: Cells were transferred to serum-free medium 2 h prior to assay. Ligands and controls (10 µl of 10× concentrates) were added to 90 µl medium and incubated for 5 min at 37 °C. The final concentration of DMSO was 0.2%. The reaction was stopped by aspiration of the medium and addition of 50 µl lysis buffer (PerkinElmer Life Sciences). To measure ERK1/2 phosphorylation, the AlphaScreen® SureFire ERK 1/2 assay kit (PerkinElmer Life Sciences) was used with the high sensitivity protocol. Phosphorylated ERK1/2 was measured in 384-well white OptiPlate microplates (PerkinElmer Life Sciences) with the Fusion AlphaScreen multilabel reader (PerkinElmer Life Sciences).

[3] = target: T1, P2Y6; experiment: IP1 accumulation assay in HEK293 cells transfected with wildtype P2RY6; type: cell-based; parameters: expressed in transfected cells; host or cells: HEK293; settings: IP1 accumulation, P2RY6-transfected HEK293, Fig. 3d
Description: To measure intracellular IP3 the HitHunter® Inositol (1,4,5) Triphosphate Assay (DiscoveRx, USA) was used according to manufacturer′s protocol. HEK293 cells stably transfected with hP2RY6 were seeded in a 384-well Black microtiter plate (15,000 cells/well) (Greiner Bio One, Germany) and incubated with indicated concentrations of UDP and PGE2-G for 20 seconds. Reaction was stopped by adding 5 µl 0.2 N perchloric acid and measurement of IP3 was performed with the Fusion AlphaScreen multilabel reader (PerkinElmer Life Sciences) according to manufacturer′s protocol. To measure IP1, HEK293 cells expressing wildtype and mutant P2Y6 were seeded into 384-well plates (5,000 cells/well) 24 h prior assay. After aspiration of the medium, cells were incubated with indicated concentrations of agonists/antagonist for 1 h. IP1 measurements using the IP-one HTFR® assay kit (Cisbio assays, USA) were performed according to manufacturer′s protocol. The assays were performed with a final concentration of 1% DMSO.

T1 sequence (Q15077 whole entry, the tested form may be a part): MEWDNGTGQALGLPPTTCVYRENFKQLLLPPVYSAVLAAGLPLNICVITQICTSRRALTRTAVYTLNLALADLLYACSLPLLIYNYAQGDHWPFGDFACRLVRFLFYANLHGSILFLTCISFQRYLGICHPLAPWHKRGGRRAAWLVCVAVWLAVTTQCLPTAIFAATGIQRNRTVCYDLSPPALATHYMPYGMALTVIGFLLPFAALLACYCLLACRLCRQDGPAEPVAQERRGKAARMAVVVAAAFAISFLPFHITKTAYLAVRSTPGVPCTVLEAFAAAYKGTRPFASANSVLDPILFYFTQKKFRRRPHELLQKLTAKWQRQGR

ERK1/2 phosphorylation response [2] | Compound | effect in Ca2+ measurements [1] | block of IP formation after stimulation with UDP and PGE2-G [3]
– | CCCCC[C@H](O)/C=C/[C@H]1C(=O)C[C@H](O)[C@@H]1C/C=C\CCCC(=O)OC(CO)CO [PGD2-G] | no effect | –
no response | CCCCC[C@H](O)/C=C/[C@H]1[C@H](O)CC(=O)[C@@H]1C/C=C\CCCC(=O)O [PGE2] | no effect | –
no response | CCCCC[C@H](O)/C=C/[C@@H]1[C@@H](C/C=C\CCCC(=O)OC(CO)CO)[C@@H](O)C[C@H]1O [PGF2α-G] | no effect | –
no effect | CCCCC[C@H](O)/C=C/[C@@H]1[C@@H](C/C=C\CCCC(=O)O)[C@@H](O)C[C@H]1O [PGF2α] | led to Ca^2+ release | –
– | C=C1C(=O)N[C@@H](C)C(=O)N(C)[C@@H](C)C(=O)N[C@@H]([C@H](OC(=O)[C@@H](NC(=O)CC)[C@H](O)C(C)C)C(C)C)C(=O)N(C)[C@@H]([C@@H](C)OC)C(=O)O[C@H](C(C)C)[C@H](NC(C)=O)C(=O)O[C@H](Cc2ccccc2)C(=O)N1C [UBO] (Ac-[X1][dPhLac][NMeDha]A[NMeA][X1](Leu(3R-OH,Nα-propionyl))[NMeT](Me); ester 1-C) | – | significantly block
